Experimental data as given in patent US8575100B2, “Tc and Re labeled radioactive glycosylated octreotide derivatives” (Mallinckrodt LLC, priority 2001, dated 2013).
One block for each substance: values may come before it.

Key:
AR42J-cells (SSTR2) [1] = experiment: Externalization and recycling of radioligands in AR42J cells; type: cell-based, rat; details: for extracellularly located radioactivity compared to the experiment without recycling: externalization experiment that allowed recycling; for externalisation from the cell (in words): upon incubation up to 120 min
Protocol: (§1) The cells were incubated with the radioligand for up to 120 min (n=3). At each time point the activity in the supernatant, the surface-bound and the internalized activity were determined and normalized to the values of TOC. Externalization and recycling was studied after an incubation time of 120 min over 2 h. Specificity of ligand binding was studied in a competition experiment with […] Sandostatin.
(§2) Internalisation and externalisation experiments were performed using the sst2 expressing rat pancreatic tumor cell line AR42J. Free, surface bound and internalised radioactivity were determined after 10, 30, 60, 90 and 120 min. of incubation with the radioligands at 37° C. In the externalisation experiments allowing ligand recycling, the fraction of radioactivity released into the supernatant during 10, 30, 60, 90 and 120 min as well as the radioactivity remaining in the cells were determined. We also measured the activity released during 5 subsequent incubations (10, 20 and 3×30 min) with intermediate changes of the medium (limited recycling).
As described for the internalization studies, the six-well plates were incubated at 37° C. with fresh culture medium (RPMI 1640, 1% BSA, 2 mM L-Glutamine) for 1H prior to the experiment. Then app. […] After incubating for 120 min. at 37° C., the supernatant was collected and the cells were washed once with 1 ml of cold medium. The supernatant was pooled with the supernatant of the previous step. To collect externalized radioactivity the cells were then incubated at 37° C. with 1 ml of culture medium. After 10, 30, 60, 90 and 120 minutes respectively, the supernatant was collected, the cells were washed once with 1 ml of culture medium and the supernatant was again pooled with the supernatant of the previous step. Then the cells were extracted with 1 ml of 1 N NaOH and the wells were rinsed once with PBS. This pooled fraction represents radioligand still located in the cell. The activity in the NaOH-fraction as well as in the supernatant- and in the externalisation-fractions was counted in a γ-Counter.
As described for the previous experiment, a six-well plate was incubated for 120 min. at 37° C. with radioligand. The supernatant was collected and the cells were washed once with 1 ml of cold medium. The supernatant was pooled with the supernatant of the previous step. To collect externalized radioactivity the cells were then incubated at 37° C. with 1 ml of culture medium. After 10 min. the supernatant was collected and the cells were again incubated with 1 ml of culture medium for another 20 min. at 37° C. The supernatant was collected and the cells were three more times incubated with 1 ml of culture medium for 30 min. at 37° C. Then the cells were extracted with 1 ml of 1 N NaOH and the wells were rinsed once with PBS. This pooled fraction represents radioligand still located in the cell. The activity in the NaOH-fraction as well as in the externalisation-fractions at all time points was counted in a […].

AR42J-cells (SSTR2) [2] = experiment: Internalization of radioligands in AR42J cells; details: for internalised ligand / internalisation rate (% internalised ligand/% surface-bound ligand): 60 min incubation; for internalised ligand: normalized to the reference [125I]TOC; for internalisation rate (% internalised ligand/% surface-bound ligand): ratio normalized to the reference [125I]TOC
Protocol: as §1, §2
Coupling of glucose (Gluc) and maltotriose (Mtr) to N^α-Lys of N^ε-(Boc-His(Boc))Lys^0-Tyr^3-Lys^5(Dde)-octreotide (protected K(H)TOC) and final deprotection yielded Gluc- and Mtr-K(H)TOC. ^99mTc-labeling was carried out using [^99mTc(H2O)3(CO)3]^+. […] Biodistribution was evaluated in nude mice bearing AR42J tumors at 0.5 and 2 h p.i (n=4).
N^ε(Boc-His(Boc))Lys^0-Tyr^3-Lys^5 (Dde)-octreotide (protected K(H)TOC) was synthesized using standard Fmoc-chemistry. […] Tc-99m-labeling was carried out using the organometallic aquaion [^99mTc (H2O)3 (CO)3]^+(1). Internalization and externalization studies (<120 min) were performed for both compounds using the SSTR2 expressing cell line AR42J. […] Biodistribution of intravenously administered [^99mTc]Gluc-K(H)TOC and [^99mTc]Mtr-K(H)TOC was evaluated in nude mice bearing AR42J rat pancreatic tumors at 30 and 120 min p.i(n=4).
Six-well plates with a cell population of 8×10^5-5×10^6 AR42J-cells per well were incubated at 37° C. with fresh culture medium (RPMI 1640, 1% BSA, 2 mM L-glutamine) for 1 h prior to the experiment. Then app. […] After incubating for 10, 30, 60, 90 or 120 min. at 37° C. the supernatant was collected and the cells were washed once with 1 ml of cold medium. The supernatant was pooled with the supernatant of the previous step. To remove receptor bound (acid releasable) radioactivity the cells were incubated at 37° C. with 1 ml of 0.02 M NaOAc (acid wash). After 10 min. the supernatant was collected, the cells were washed once with 1 ml of 0.02 M NaOAc and the supernatant was again pooled with the supernatant of the previous step. Then the cells were extracted with 1 ml of 1 N NaOH and the wells were rinsed once with PBS. This pooled fraction represents internalized radioligand. The activity in the NaOH-fraction as well as in the supernatant- and in the acid wash-fractions was counted in a γ-Counter.

[3] = Determination of lipophilicity (octanol/PBS); type: physicochemical; details: octanol/PBS pH 7.4; radiolabeled peptide; n=6
Protocol: To a solution of app. 300000 cpm of radiolabeled peptide in […] of PBS (pH 7.4), […] of octanol were added (n=6). Vials were vortexed for 3 min and then centrifuged at 15000 rpm for 6 min. Aliquots of […] of PBS and octanol were measured in a γ-Counter.

Substance: [^125I]Tyr^3-octreotide [[^125I]TOC]
- extracellularly located radioactivity compared to the experiment without recycling (AR42J-cells (SSTR2) [1]): about 80%
- externalisation from the cell (in words) (AR42J-cells (SSTR2) [1]): rapidly externalised
- decrease of intracellular activity (AR42J-cells (SSTR2) [1]; within 2 h (120 min)): about 50%
- internalised ligand (AR42J-cells (SSTR2) [2]): 100
- internalisation rate (% internalised ligand/% surface-bound ligand) (AR42J-cells (SSTR2) [2]): 100

- surface availability (% surface-bound ligand/% free radioligand) (AR42J-cells (SSTR2) [2]): 182 ± 6
Substance: [^125I]Tyr^3-octreotate [[^125I]TOCA]
- extracellularly located radioactivity compared to the experiment without recycling (AR42J-cells (SSTR2) [1]; printed as a fraction): about ⅔
- internalised ligand (AR42J-cells (SSTR2) [2]): 204 ± 7
- internalisation rate (% internalised ligand/% surface-bound ligand) (AR42J-cells (SSTR2) [2]): 140 ± 8
- amount of internalized ligand [% internalized TOC] (AR42J-cells (SSTR2) [2]; after 2 h of incubation, normalized to TOC): 154%
- internalization rate (internalized/surface bound act.) increase (AR42J-cells (SSTR2) [2]; compared to TOC): 1.4 fold
- surface concentration (availability on the cell surface) increased by a factor compared to TOC (AR42J-cells (SSTR2) [2]; compared to TOC): 2.1

- log Pow [3]: log Pow = −0.673 ± 0.064
Substance: (1-deoxy-D-fructosyl)-Lys^0Nε-His)-Tyr^3-octreotide [S1-Lys^0(His)TOC]

Substance: Na-(1-deoxy-D-fructosyl)-Lys^0(Nε-His [^99mTc (H2O)(CO)3]+)-Tyr^3-octreotide [[^99mTc]Gluc-K^0(H)TOC]
- externalisation from the cell (in words) (AR42J-cells (SSTR2) [1]): remains trapped within the cell up to 120 min
- externalisation from the cell (in words) (AR42J-cells (SSTR2) [1]; listed as [^99mTc]Gluc-K(H)TOC): almost stable up to 2h
- retention in the cell under recycling conditions (AR42J-cells (SSTR2) [1]; within 120 min, recycling allowed): nearly quantitative retention
- internalised ligand (AR42J-cells (SSTR2) [2]): 234 ± 24
- internalisation rate (% internalised ligand/% surface-bound ligand) (AR42J-cells (SSTR2) [2]): 171 ± 29
- increase of internalisation by a factor compared to the reference [125I]TOC (AR42J-cells (SSTR2) [2]; Example 2, time not given): 2.3±0.8
- intracellular activity levels, times higher than [125I]TOC (AR42J-cells (SSTR2) [2]; at 2 h (120 min)): 2.3±0.2 times
